# From patent US20230181493A1, “BIOMARKERS RELATED TO PARKINSON'S DISEASE AND METHODS OF USING THE SAME” (SENDA BIOSCIENCES, INC., priority 2020, published 2023)
# Columns and labels:
# E. faecalis v583 = experiment: Inhibition of Enterococcus faecalis decarboxylation activity in vitro; type: cell-based; conditions: levodopa remaining in E. faecalis v583 culture, BHI broth pH 5, 1.5 mM levodopa, 24 h at 37° C., anaerobic, read-out: IC50 @ 60 min
# Description: A vial of 200 μL of E. faecalis v583 was removed from a −80° C. freezer and thawed in an anaerobic chamber containing an atmosphere of either 95/5 N2/H2 (v/v) or 90/5/5 N2/H2/CO2 (v/v). 200 μL was inoculated into 10 mL of sterile, anaerobic BHI broth, pH 5 (adjusted with NaOH). The culture was grown overnight at 37° C. under anaerobic conditions.
# After overnight incubation, 40 μL of the saturated starter culture was mixed with 744 μL of sterile, anaerobic BHI broth, pH 5 that had been supplemented with 1.5 mM levodopa. To this was added 16 μL of a 50-fold concentrated stock solution of inhibitor that had been dissolved in either DMSO, H2O, or DMSO:H2O (1:1 v/v). The final concentration of the inhibitor in each condition was 0, 0.001, 0.01, 0.1, 1, 10, or 100 μM. The contents of each incubation were mixed, and then 100 μL was transferred into a fresh 96-well plate. […]
# The samples were analyzed by using an Agilent 6470 triple quadrupole mass spectrometer equipped with an Acquity UPLC. […] The levodopa was detected by using the mass spectrometer in multiple reaction monitoring (MRM) mode, quantifying the transition 198.1 to 151.9 m/z in positive mode. […] Tolbutamide was monitored using MRM and quantifying the transition of 271.1 to 91.0 m/z in positive mode. […]
# The amount of levodopa was quantified by normalizing the area to the area of tolbutamide internal standard within each sample. […]
# [1] = molecular target: T1, Tyrosine decarboxylase (tdc) (Enterococcus faecalis, UniProt P0DTQ4); experiment: Inhibition of tyrosine decarboxylase in vitro; type: biochemical; conditions: 60 min preincubation of tdc with inhibitor at room temperature; dopamine formed from levodopa, LC-MS
# T1 construct: made in house
# T1 sequence (P0DTQ4 1-620): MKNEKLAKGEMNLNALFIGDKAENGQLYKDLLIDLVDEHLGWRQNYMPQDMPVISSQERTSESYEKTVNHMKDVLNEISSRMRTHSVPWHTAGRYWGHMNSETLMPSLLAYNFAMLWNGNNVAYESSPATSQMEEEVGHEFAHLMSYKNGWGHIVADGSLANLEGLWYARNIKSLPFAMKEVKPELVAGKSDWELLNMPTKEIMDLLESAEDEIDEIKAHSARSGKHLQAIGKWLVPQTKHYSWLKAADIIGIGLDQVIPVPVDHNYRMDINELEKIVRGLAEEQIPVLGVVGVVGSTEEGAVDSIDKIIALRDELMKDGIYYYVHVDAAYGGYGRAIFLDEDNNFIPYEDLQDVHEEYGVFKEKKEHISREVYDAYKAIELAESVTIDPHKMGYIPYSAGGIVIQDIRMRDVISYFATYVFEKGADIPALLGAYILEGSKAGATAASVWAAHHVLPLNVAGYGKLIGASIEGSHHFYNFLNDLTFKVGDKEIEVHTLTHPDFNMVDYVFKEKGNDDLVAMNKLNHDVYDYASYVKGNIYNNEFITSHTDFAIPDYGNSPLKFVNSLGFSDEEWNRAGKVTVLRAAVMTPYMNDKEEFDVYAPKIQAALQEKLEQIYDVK
# Description: Tyrosine decarboxylase (tdc) was obtained by following a previously published literature procedure (Rekdal et al., Science 2019; 364(6445):eaau6323). The tdc (220 nM final concentration) was thawed on ice and then mixed with pyridoxal-5-phosphate (2.2 mM final concentration) in 200 mM sodium acetate buffer, pH 5.5 optionally containing 1 mM TCEP. To this mixture was added inhibitor at a final concentration of 1000, 333, 111, 37, 12, 4.1, 1.4, or 0 μM (final volume: 100 μL; inhibitor was 100-fold concentrated in a solution of DMSO, H2O, or DMSO:H2O (1/1 v/v)). The protein-inhibitor mixture was incubated at room temperature for 60 min. 6 μL of this mixture was then withdrawn from each solution and mixed with 54 μL of 10 mM levodopa in 200 mM sodium acetate buffer pH 5.5. The final concentration of the reaction was 22 nM tdc, 220 μM pyridoxal-5-phosphate, 9 mM levodopa in 200 mM sodium acetate buffer pH 5.5 with 0-100 μM inhibitor. The reaction proceeded for 5 min at room temperature before being quenched by the addition of 540 μL acetonitrile containing 0.1% (v/v) formic acid supplemented with 200 nM tolbutamide as an internal standard. The reactions were centrifuged (3,000 g, 10 min), and then 100 μL of each supernatant was transferred to a fresh plate. 100 μL of acetonitrile containing 0.1% (v/v) formic acid supplemented with 200 nM tolbutamide was added. An external standard curve containing 0-150 μM dopamine was prepared in the exact same manner.
# Dopamine formed in each reaction was quantified by using an Agilent 6470 triple quadrupole mass spectrometer equipped with an Acquity UPLC. Mobile phase A consisted of H2O containing 10 mM ammonium formate, pH 3.0 and supplemented with 0.1% (v/v) formic acid. Mobile phase B consisted of acetonitrile containing 10 mM ammonium formate, pH 3.0 and supplemented with 0.1% (v/v) formic acid. 5 μL of each sample was injected onto a BEH Amide column (Waters Corporation, 2.1×50 mm, 1.7 μm). The gradient was set to: 100% mobile phase B at 0 min, decreasing linearly to 65% mobile phase B by 1.5 min, held constant at 65% mobile phase B until 2.5 min, ramped back up to 100% mobile phase B by 2.6 min, and held constant at 100% mobile phase B until 4.2 min. The flow rate was 0.6 mL/min. The dopamine was detected by using the mass spectrometer in multiple reaction monitoring (MRM) mode, quantifying the transition 154.1 to 137.0 m/z in positive mode. The fragmentor setting was 74, the collision energy was 9, and the cell accelerator voltage was 4, and the dwell time was 20. Tolbutamide was monitored using MRM and quantifying the transition of 271.1 to 91.0 m/z in positive mode. The fragmentor setting was 88, the collision energy was 37, and the cell accelerator voltage was 4, and the dwell time was 20.
# The amount of dopamine was quantified by normalizing the area to the area of tolbutamide internal standard within each sample. This relative response was then compared to that of the standard curve to obtain the dopamine formed within each sample. The concentration of dopamine formed as a function of the inhibitor concentration at the preincubation stage was plotted in GraphPad Prism 8, and the IC50 was calculated using the non-linear fit for the standard IC50 curve equation “[inhibitor] vs response (three parameters).”
# [2] = carbidopa administered with levodopa; cited from earlier work
# [3] = system: microbial enzyme TDC in the rat microbiome; experiment: In vivo metabolism of levodopa: levodopa in circulation after inhibition of microbial TDC; conditions: oral gavage, whole blood, LC-MS/MS
# Excerpt: The microbial enzyme TDC in the rat microbiome was inhibited with alpha-fluoromethyltyrosine (AFMT). On day 0, male Sprague Dawley rats were prophylactically treated with single oral gavage of vehicle, carbidopa, carbidopa+S-AFMT, or carbidopa+R-AFMT, respectively. On day 1, solutions of levodopa, carbidopa, S-AFMT in 1% methyl cellulose (w/v), and 1% ascorbic acid (w/w) in deionized (DI) water were applied by oral gavage to male Sprague Dawley rats.
# Whole blood samples were drawn and levodopa concentrations were determined by LC-MS/MS at 0, 5, 10, 15, 30, 45, 90, and 180 min post-application (12 animals per time point).
# Description for hepatocytes: In a 50 mL falcon tube, 40 mL of Gibco hepatocyte thawing medium was added. The remaining 10 mL of medium was used to gently transfer hepatocytes into a falcon tube using a wide-mouth pipette. The mixture was centrifuged briefly at low speed (100 g for 30 sec) to gather cells at the base of the tube. The supernatant was removed from the tube then bleached and the liquid discarded, leaving behind the cell pellet in the tube. About 4 mL of Gibco Williams E phenol-free medium was added to the tube to get a final count of 1 mil/mL, tilting gently by hand to scatter the cell pellet. […] Count was repeated twice and averaged to calculate the concentration in solution. Count of 1.2 mil/mL was found, and another 800 μL of incubation medium was added to the tube to bring the count to 1 mil/mL. Four wells of a 24 well plate were plated with 1 mL per well, and the plate was gently agitated to distribute a uniform number of cells per well. The plate was pre-incubated for about 10 min at 37° C. […] The plates were agitated to distribute compounds, then 200 μL aliquots were taken from each well and treated with an equal volume of ice-cold acetonitrile to quench catalysis and monitor progress. The quenching and sampling procedure was repeated at 4 h for 4-h samples. The quenched samples were centrifuged at 4000 g for 10 min at 4° C. and the supernatants were saved for analysis.
structure (smiles),measurement,setting,value
NCCc1cccc(O)c1 [meta-tyramine],metabolites produced by hepatocytes,hepatocytes,"metabolic derivatives of meta-tyramine (e.g., 3-hydroxyphenylacetic acid and meta-tyramine-O-sulfate) were produced"
"N[C@](CF)(Cc1ccc(O)cc1)C(=O)O [T, (R)-2-amino-3-fluoro-2-(4-hydroxybenzyl)propanoic acid]",IC50,E. faecalis v583,18.5 µM
same,IC50,[1],82.3 µM
"CC(Cc1ccc(O)c(O)c1)(NN)C(=O)O (single isomer, unassigned; (-)) [carbidopa, (−)-L-α-hydrazino-α-methyl-β-(3,4-dihydroxybenzene) propanoic acid monohydrate]",reduction of the amount of levodopa required to produce a given response,[2],about 75%
"N[C@@](CF)(Cc1ccc(O)cc1)C(=O)O [AFMT, alpha-fluoromethyltyrosine]",levels of levodopa at the earliest timepoint assessed,[3],elevated levels of levodopa at the earliest timepoint assessed
"NC(Cc1ccc(O)cc1)(C(=O)O)C(F)F (stereo not shown) [Compound K, 2-amino-3,3-difluoro-2-(4-hydroxybenzyl)propanoic acid]",IC50 @ 60 min,[1],Minor inhibition
"COc1ccc(CCC(N)(CF)C(=O)O)cc1 (stereo not shown) [Compound U, 2-amino-2-(fluoromethyl)-4-(4-methoxyphenyl)butanoic acid]",IC50,[1],> 1000 µM
"N[C@@](CF)(Cc1ccc(O)cc1)C(=O)O [S, (S)-2-amino-3-fluoro-2-(4-hydroxybenzyl)propanoic acid]",IC50,E. faecalis v583,2 µM
same,IC50,[1],4 µM
"NC(CF)(Cc1cccc(O)c1)C(=O)O (stereo not shown) [Compound R, 2-amino-3-fluoro-2-(3-hydroxybenzyl)propanoic acid]",IC50 @ 60 min,[1],Minor inhibition
